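How tested: cells in 96-well plates exposed to compound for 48 hours at five concentrations. GI50 = concentration required for 50% inhibition of growth.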 Activity calls are given as the source filed them. Cut-off read from the data, not from the text of the source: active = GI50 up to about 1.1 µM and inactive = higher.
How the values were obtained:
Assay in all cases: inhibition of tumour cell growth, NCI panel, 48 h
HCC 2998 = tested on: HCC 2998
OVCAR-5 = tested on: OVCAR-5
SR = tested on: SR
CCRF-CEM = tested on: CCRF-CEM
MOLT-4 = tested on: MOLT-4
NCI-H23 = tested on: NCI-H23
OVCAR-4 = tested on: OVCAR-4
OVCAR-3 = tested on: OVCAR-3
RPMI-8226 = tested on: RPMI-8226
RXF 393 = tested on: RXF 393
IGROV-1 = tested on: IGROV-1
K562 = tested on: K562
SF-295 = tested on: SF-295
SK-MEL-2 = tested on: SK-MEL-2
CAKI-1 = tested on: CAKI-1
HCT-15 = tested on: HCT-15
OVCAR-8 = tested on: OVCAR-8
MCF7 = tested on: MCF7
SW-620 = tested on: SW-620
ACHN = tested on: ACHN

Measured: GI50

CC(C)(C)OC(=O)NCCCCCCC(=O)Cc1ccccc1
> 100 µM: HCT-15
inactive: HCC 2998 > 100 µM | OVCAR-5 > 100 µM | SR > 100 µM | CCRF-CEM > 100 µM | MOLT-4 59 µM | NCI-H23 > 100 µM | OVCAR-4 > 100 µM | OVCAR-3 > 100 µM | RPMI-8226 > 100 µM | RXF 393 > 100 µM | IGROV-1 > 100 µM | K562 > 100 µM | SF-295 > 100 µM | SK-MEL-2 > 100 µM | CAKI-1 > 100 µM | OVCAR-8 > 100 µM | MCF7 > 100 µM | SW-620 > 100 µM | ACHN > 100 µM

O=C(N/N=C\c1ccc(Cl)cc1)Nc1ccc2ccccc2c1
> 100 µM: HCT-15
inactive: HCC 2998 67.5 µM | OVCAR-5 71.6 µM | SR 36.2 µM | CCRF-CEM > 100 µM | MOLT-4 > 100 µM | NCI-H23 76.4 µM | OVCAR-4 19.8 µM | OVCAR-3 > 100 µM | RPMI-8226 70.8 µM | RXF 393 27.6 µM | IGROV-1 61.5 µM | K562 > 100 µM | SF-295 > 10 µM | SK-MEL-2 80.4 µM | CAKI-1 41.7 µM | OVCAR-8 27.4 µM | MCF7 87.9 µM | SW-620 46.2 µM | ACHN 43.6 µM

O=C1c2ccc3c4ccc5c6c(ccc(c7ccc(c2c37)C(=O)N1CCN1CCCCC1)c64)C(=O)N(CCN1CCCCC1)C5=O
> 100 µM: HCT-15
inactive: HCC 2998 > 100 µM | OVCAR-5 > 100 µM | SR > 100 µM | CCRF-CEM > 100 µM | MOLT-4 > 100 µM | NCI-H23 > 100 µM | OVCAR-4 > 100 µM | OVCAR-3 > 100 µM | RPMI-8226 > 100 µM | RXF 393 > 100 µM | IGROV-1 > 100 µM | K562 > 100 µM | SF-295 > 100 µM | SK-MEL-2 > 100 µM | CAKI-1 > 100 µM | OVCAR-8 > 100 µM | MCF7 > 100 µM | SW-620 > 100 µM | ACHN > 100 µM

CC(=O)/C(C)=N/NC(=O)c1ccccc1O
97.5 µM: HCT-15
inactive: HCC 2998 > 10 µM | OVCAR-5 > 10 µM | SR 41.6 µM | CCRF-CEM 23 µM | MOLT-4 31.7 µM | NCI-H23 > 10 µM | OVCAR-4 > 10 µM | OVCAR-3 69.5 µM | RPMI-8226 > 10 µM | RXF 393 > 10 µM | IGROV-1 75 µM | K562 37 µM | SF-295 > 10 µM | SK-MEL-2 > 10 µM | CAKI-1 > 10 µM | OVCAR-8 > 10 µM | MCF7 > 100 µM | SW-620 > 10 µM | ACHN > 10 µM

CN(C)CCNC(=O)c1cc([N+](=O)[O-])ccn1
18.1 µM: HCT-15
inactive: HCC 2998 40 µM | OVCAR-5 71.4 µM | SR 54.8 µM | CCRF-CEM 31.6 µM | MOLT-4 23.1 µM | NCI-H23 20.9 µM | OVCAR-4 20.2 µM | OVCAR-3 22.5 µM | RPMI-8226 45.1 µM | RXF 393 41.6 µM | IGROV-1 25.9 µM | K562 21.5 µM | SF-295 26.8 µM | SK-MEL-2 24.2 µM | CAKI-1 34 µM | OVCAR-8 27.2 µM | MCF7 16.6 µM | SW-620 27 µM | ACHN 36.7 µM

Nc1ccn(C=C=CCO)c(=O)n1
> 100 µM: HCT-15
inactive: HCC 2998 > 78.5 µM | OVCAR-5 > 100 µM | SR 190 µM | CCRF-CEM 7.43 µM | MOLT-4 5.85 µM | NCI-H23 > 100 µM | OVCAR-4 > 100 µM | OVCAR-3 > 100 µM | RPMI-8226 589 µM | RXF 393 > 100 µM | IGROV-1 > 100 µM | K562 > 100 µM | SF-295 > 100 µM | SK-MEL-2 > 100 µM | CAKI-1 > 100 µM | OVCAR-8 229 µM | MCF7 > 100 µM | SW-620 > 100 µM | ACHN > 100 µM

CC(C)=CC(=O)O[C@@H]1CC(C)(C)CC2C3=CCC4[C@]56CC[C@](O)(OC5)C(C)(C)C6CC[C@@]4(C)C3(C)CC[C@]21C(=O)O (stereo not given in full)
31.4 µM: HCT-15
inactive: HCC 2998 > 100 µM | OVCAR-5 > 100 µM | SR 61 µM | CCRF-CEM 41.7 µM | MOLT-4 55.2 µM | NCI-H23 26.1 µM | OVCAR-4 63.2 µM | OVCAR-3 31.3 µM | RPMI-8226 27.8 µM | RXF 393 > 100 µM | IGROV-1 31.8 µM | K562 48 µM | SF-295 56.5 µM | SK-MEL-2 > 100 µM | CAKI-1 > 100 µM | OVCAR-8 59.6 µM | MCF7 > 100 µM | SW-620 > 100 µM | ACHN 25.8 µM

O=C(c1ccccc1)c1ccc2nc3n(c2c1)C(c1c(F)cccc1F)SC3 (stereo not given)
3.16 µM: HCT-15
active: SR 0.847 µM
inactive: HCC 2998 5.25 µM | OVCAR-5 5.74 µM | CCRF-CEM 4.76 µM | MOLT-4 2.74 µM | NCI-H23 9.4 µM | OVCAR-4 7.8 µM | OVCAR-3 4.9 µM | RPMI-8226 4.62 µM | RXF 393 13.2 µM | IGROV-1 5.05 µM | K562 3.31 µM | SF-295 3.2 µM | SK-MEL-2 8.3 µM | CAKI-1 5.13 µM | OVCAR-8 9.33 µM | MCF7 3.85 µM | SW-620 3.18 µM | ACHN 3.85 µM
